# Read-outs that look alike come from different tables or passages of the source.
# Key:
# Rat white adipocytes = assay: Stimulation of differentiation of the adipocytes (Oil Red O); format: cell-based; settings: 100 nM test compound, 5 days, Oil Red O ABS550, control = 100%, blank = 0%, Table 7; for activity at 0.1 µM: Rattus norvegicus, Adipocyte, 120 h, read-out: Rate of Differentiation (%)
# Procedure: Rat white adipocytes contained in the white adipocyte culture kit, which was purchased from HOKUDO, were used. Mediums for proliferation and for differentiation-inducing, which were contained in the white adipocyte culture kit purchased from HOKUDO, were used.
# Immediately after arrival of the purchased cells, all medium for transportation was discarded and replaced with 5 ml of proliferation medium (/25 cm^2-flask) and the cells were cultured for one day. Then, a cell suspension was prepared with proliferation medium so as to be 83,000 cells/mL, and the suspension was plated into a type I 96-well collagen-coated microplate (SUMITOMO BAKELITE CO., ltd.) so as to be 5,000 cells/well (60 μL/well). For the blank, the proliferation medium without the cells was plated into the well (blank well) of each plate.
# Further, 1) in the group treated with the test compound, 3 μL/well of a solution in which the test compound (100 μM) was dissolved in DMSO solution and diluted with differentiation-inducing medium by 20 times (final concentration of the test compound: 100 nM, final concentration of DMSO: 0.1% (v/v)) were added to the well where the cells were plated. 2) In the control group, 3 μL/well of DMSO solution that was diluted with differentiation-inducing medium by 20 times (final concentration of DMSO: 0.1% (v/v)) were added to the well where the cells were plated. Further, 3) in the blank group, 3 μL/well of DMSO solution that was diluted with differentiation-inducing medium by 20 times (final concentration: 0.1% (v/v)) were added to the blank well.
# After culturing for 5 days, all differentiation-inducing medium was discarded and replaced with 60 μL of 10% (v/v) of formaldehyde solution (for fixation) in each well and the cells were kept stationary for 20 min at room temperature. After this the fixative solution was discarded and replaced with 60 μL of 0.2% (v/v) Triton X (Sigma-Aldrich Japan K. K.) solution in each well and kept stationary for 5 min at the room temperature. Then all Triton X solution was discarded and replaced with 60 μL of 60% (v/v) isopropanol solution containing dissolved Oil Red 0 (Sigma-Aldrich Japan K. K.) so as to be 0.3%, which was adipose tissue staining solution, and the well was left stationary for 10 min at room temperature. After the adipose tissue staining solution was discarded, the well was washed twice with 60 μL of 60% (v/v) isopropanol solution. Then, 100 μL of the DMSO were added to each well and stirred for 5 min at room temperature. The absorbance was measured at 550 nm (ABS550) with a multi-plate reader (LabsSystems), and the stained amount by Oil Red 0 was determined. The measured level at ABS550 in the control group was defined as 100%, while the level at ABS550 in the blank group was defined as 0%. The differentiation rate (%) of the adipocytes treated with the test compound was calculated.
# [1] = test system: Mouse preadipocyte strain 3T3-L1; assay: Inhibition of differentiation as an indication of acetic acid uptake; format: cell-based; settings: control (0.01% dimethylsulfoxide) = 100%; for activity at 0.1 µM: Mus musculus, read-out: Rate of Uptake (%) of [2-14C] acetic acid
# Summary of the method: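 Confluent 3T3-L1 cells induced to differentiate for 4 days (insulin, IBMX, dexamethasone, 5% FBS) with test compound at 0.1 μM final or 0.01% DMSO, then 2 days in insulin maintenance medium, at 37 °C, 10% CO2. [2-14C]acetic acid uptake over 1 hr counted by scintillation; expressed as % of DMSO control.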
Molecule,activity at 0.1 µM (Rat white adipocytes),"activity at 0.1 µM ([1]; 3T3-L1, 0.1 μM test substance)",Rate of Differentiation (%) (Rat white adipocytes),Rate of Uptake (%) of [2-14C] acetic acid ([1]; 0.1 μM test substance),activity at 0.1 µM ([1]; 0.1 μM test substance)
"O=C(Nc1ncc(Br)s1)c1cc([N+](=O)[O-])ccc1Cl [Example 48, N-(5-Bromothiazol-2-yl)-(2-chloro-5-nitrophenyl)carboxamide]",131%,70.3%,,,
"COC(=O)c1nccnc1NC(=O)c1cc([N+](=O)[O-])ccc1Cl [Example 60, N-(2-Metboxycarbonylpyrazin-3-yl)-(2-chloro-5-nitrophenyl)carboxamide]",,,110.5%,68.8%,
"Cc1ccnc(NC(=O)c2cc([N+](=O)[O-])ccc2Cl)c1[N+](=O)[O-] [Example 63, N-(4-Methyl-3-nitropyridin-2-yl)-(2-chloro-5-nitrophenyl)carboxamide]",120%,,,,85.5%
"O=C(Nc1nc2ccc(F)cc2s1)c1cc([N+](=O)[O-])ccc1Cl [Example 70, N-(6-Fluorobenzothiazol-2-yl)-(2-chloro-5-nitrophenyl)carboxamide]",122%,70.2%,,,
"O=C(Nc1ncccc1[N+](=O)[O-])c1cc([N+](=O)[O-])ccc1Cl [Example 80, N-(3-Nitropyridin-2-yl)-(2-chloro-5-nitrophenyl)carboxamide]",118%,,,,83.3%
"O=C(Nc1ccc(N2CCOCC2)cc1)c1cc([N+](=O)[O-])ccc1Cl [Example 113, N-[4-(Morpholin-4-yl)phenyl]-(2-chloro-5-nitrophenyl)carboxamide]",111%,84.6%,,,
"O=C(O)c1cccc(NC(=O)c2cc([N+](=O)[O-])ccc2Cl)c1 [Example 145, 3-(2-Chloro-5-nitrobenzoylamino)benzoic Acid]",141%,87.6%,,,
"O=C(Nc1cccnc1)c1ccc(NC(=O)c2cc([N+](=O)[O-])ccc2Cl)cc1 [Example 148, N-[4-(Pyridin-3-ylaminocarbonyl)phenyl]-(2-chloro-5-nitrophenyl)carboxamide]",119%,75.3%,,,
N-(5-Bromo-3-nitropyridin-2-yl)-(−2-chloro-5-nitrophenyl-carboxamide [Example 84],,,151.4%,59.5%,

# Source: US20030134859A1 (SANKYO COMPANY, LIMITED, priority 2000, published 2003)
